{"source": "the CATMoS acute toxicity set (Mansouri et al. 2021)", "origin": "cited, not measured here", "note": "Where “and” joins values, the source holds several entries; their conditions need not be identical. Equal entries are not always repeated."}
{"assay": "rat acute oral toxicity", "conditions": "in vivo", "excerpt": "[…]The data set underlying the modeling effort for this project was initially compiled by NICEATM and U.S. EPA’s CCTE. Briefly, LD50 data were collected from rat acute oral systemic toxicity tests, including limit tests, ranges/confidence intervals, and discrete LD50 values. The full data set included 21,200 LD50 entries for 15,688 substances. […] Data were reviewed to ensure that LD50 values with obvious errors in the extracted data such as unit conversion errors (e.g., comma and decimal separator misplacements) were either fixed or removed. After this review, 16,209 LD50 values remained. Many of the chemicals represented had multiple LD50 entries, requiring that a single representative value per Chemical Abstracts Service Registry Number (CASRN) identifier be defined to facilitate modeling efforts. Based on ATWG feedback and to define the representative LD50 as a protective value while accounting for the distribution across multiple LD50s, the median of the lowest quartile was computed using only discrete LD50 values (omitting limit test data and range and confidence interval data). A detailed summary of the data compilation is available online on the NICEATM webpage dedicated to the collaborative modeling project (NTP 2020).\n[…][…] For categorical designations, limit test and range/confidence interval LD50 data were integrated wherever possible. As such, the number of chemicals with end point values/calls varies across the modeling end points (Table 3) based on whether chemicals had representative LD50 values and/or other data. If a chemical had both, the representative value was used to determine categorical calls rather than limit test data. Some data were useable only for certain end points and categories depending on the thresholds. For example, ranges that spanned multiple hazard categories were considered only for the binary (very toxic/nontoxic) end points and omitted from rendering a determination for hazard category assignment.\n[…]The final data set comprising 11,992 chemicals was split into training and evaluation sets […], respectively. This process was performed semirandomly by ordering chemicals based on the five end points (categorical and continuous LD50 values) and partitioning every fourth record into the evaluation set accordingly. This approach was taken to ensure an equivalent distribution of the LD50 values and the different hazard categories between the training and the evaluation sets without supervised sampling of the chemicals based on structures (Figure 1A). The sources of the chemical structures were also kept equivalent between the two sets, with chemical structures obtained from DSSTox, being the highest quality, representing over 75% of each set (Figure 1B)."}
{"smiles": "COP(=O)(OC)Oc1ccc([N+](=O)[O-])c(C)c1", "LD50": "24 mg/kg"}
{"smiles": "Fc1c(Br)c(F)c2nc(C(F)(F)F)[nH]c2c1Br", "LD50": "7.23 mg/kg"}
{"smiles": "Cc1c(F)c(F)c2nc(C(F)(F)F)[nH]c2c1F", "LD50": "3.94 mg/kg"}
{"smiles": "Cc1[nH]c(=O)c(C#N)cc1-c1ccc2nccn2c1", "LD50": "7800 mg/kg"}
{"smiles": "CN(C)C(=O)Nc1cc(C(C)(C)C)on1", "LD50": "630 mg/kg"}
{"smiles": "CC(C)COc1ccc2ccccc2c1", "LD50": "5930 mg/kg"}
{"smiles": "CC1(C)[C@H](C(=O)O[C@H](C#N)c2cccc(Oc3ccccc3)c2)[C@@H]1/C=C(\\Cl)C(F)(F)F", "note": "(single isomer, unassigned)", "LD50": "56 mg/kg"}
{"smiles": "CC(C)c1nnc(NS(=O)(=O)c2ccc(N)cc2)s1", "LD50": "3940 mg/kg"}
{"smiles": "O=c1[nH]nc(-c2ccccc2)c2conc12", "LD50": "1000 mg/kg"}
{"smiles": "Cc1ccc(N)cc1[N+](=O)[O-]", "LD50": "6860 mg/kg"}
{"smiles": "Cc1occc1C(=O)Nc1ccccc1", "LD50": "12900 mg/kg"}
{"smiles": "Cc1cc(=NC(=O)c2ccccc2O)n(-c2ccccc2)n1C", "LD50": "1270 mg/kg"}
{"smiles": "CCCCCCCCCCCC[N+](C)(C)CC(=O)[O-]", "LD50": "71 mg/kg"}
{"smiles": "CN(C)C(=O)COC(=O)Cc1ccc(OC(=O)c2ccc(NC(=N)N)cc2)cc1", "LD50": "3000 mg/kg"}
{"smiles": "Cc1ccccc1C#N", "LD50": "3200 mg/kg"}
{"smiles": "COC(=O)C(C(C)=O)C(C)=O", "LD50": "1700 mg/kg"}
{"smiles": "CC(=O)C(C)(C)C", "LD50": "610 mg/kg"}
{"smiles": "Cc1ccc2oc(=O)ccc2c1", "LD50": "1680 mg/kg"}
{"smiles": "CCC(=O)c1ccc2c(c1)N(CCCN1CCN(C)CC1)c1ccccc1S2", "LD50": "600 mg/kg"}
{"smiles": "CCOC(=O)Cc1ccccc1", "LD50": "3300 mg/kg"}
{"smiles": "COc1ccc2c(c1)c(CC(=O)Oc1ccccc1C(=O)Oc1ccccc1C(=O)O)c(C)n2C(=O)c1ccc(Cl)cc1", "LD50": "63 mg/kg"}
{"smiles": "Cc1ccccc1N=Nc1c(N)ccc2ccccc12", "LD50": "120 mg/kg"}
{"smiles": "FCOC(C(F)(F)F)C(F)(F)F", "LD50": "10800 mg/kg"}
{"smiles": "C=C1/C(=C\\C=C2/CCC[C@]3(C)[C@@H]([C@H](C)/C=C/[C@H](C)C(C)C)CC[C@@H]23)C[C@@H](O)C[C@@H]1O", "LD50": "3.5 mg/kg"}
{"smiles": "CCCCNCCC[Si](OC)(OC)OC", "LD50": "12800 mg/kg"}
{"smiles": "Cc1ncc(CO)c(C(=O)O)c1O", "LD50": "7500 mg/kg"}
{"smiles": "COc1cc(-c2ccc(N)c(OC)c2)ccc1N", "LD50": "1920 mg/kg"}
{"smiles": "CC(C=O)=Cc1ccco1", "LD50": "1400 mg/kg"}
{"smiles": "CC(C)N(C(=O)SCC(Cl)=CCl)C(C)C", "LD50": "395 mg/kg"}
{"smiles": "CC(=O)CCC(C)=O", "LD50": "2080 mg/kg"}
{"smiles": "CCCCCCCCCCCCOCCO", "LD50": "6550 mg/kg"}
{"smiles": "C1CC2OC2CC1C1CO1", "note": "(stereo not drawn)", "LD50": "2830 mg/kg"}
{"smiles": "CC1(C)OCC(CCl)O1", "note": "(stereo not drawn)", "LD50": "115 mg/kg"}
{"smiles": "C1CCC2OCCOCCOCCOC3CCCCC3OCCOCCOCCOC2C1", "note": "(stereo not drawn)", "LD50": "75 mg/kg"}
{"smiles": "O=C(O)c1cc(/N=N/c2ccc(S(=O)(=O)Nc3ccccn3)cc2)ccc1O", "LD50": "15600 mg/kg"}
{"smiles": "NC(=O)NO", "LD50": "5760 mg/kg"}
{"smiles": "COP(=S)(OC)Oc1cc(C)n(C)c(=O)c1", "LD50": "0.812 mg/kg"}
{"smiles": "CNCCC#N", "LD50": "2260 mg/kg"}
{"smiles": "CC(C)c1ccc2c(c1)CC[C@H]1[C@](C)(C(=O)O)CCC[C@]21C", "LD50": "1710 mg/kg"}
{"smiles": "CCCCCCCCCCCCCCCCCC1=NC(C)CC(C)(C)N1", "note": "(stereo not drawn)", "LD50": "493 mg/kg"}
{"smiles": "COc1ccccc1N1CCN(CCCNc2cc(=O)n(C)c(=O)n2C)CC1", "LD50": "520 mg/kg"}
{"smiles": "CCC(=O)OC1CCC(N2CCCCC2)CC1", "note": "(stereo not drawn)", "LD50": "1980 mg/kg"}
{"smiles": "COc1cccc(C2(O)CCCCC2CN(C)C)c1", "note": "(stereo not drawn)", "LD50": "228 mg/kg"}
{"smiles": "CN(C)C(CSC#N)CSC#N", "LD50": "125 mg/kg and 82 mg/kg"}
{"smiles": "CO[C@H]1CC[C@H](O[C@@]2(C)[C@H](C[C@@H]3C[C@@H](OC)[C@@H](C)[C@]4(O3)O[C@](C)(C3CC[C@@H]([C@H]5CC[C@H](C6O[C@](C)(O)[C@H](C)C[C@@H]6C)O5)O3)[C@H](OC)[C@H]4C)O[C@](O)([C@@H](C)C(=O)O)[C@H](C)[C@@H]2OC)O[C@@H]1C", "note": "(stereo partly drawn)", "LD50": "10 mg/kg"}
{"smiles": "NCc1cccc(CN)c1", "LD50": "930 mg/kg"}
{"smiles": "COc1cccc2c1C(=O)c1c(O)c3c(c(O)c1C2=O)C[C@@](O)(C(C)=O)C[C@@H]3O[C@H]1C[C@H](N)[C@H](O)[C@H](C)O1", "LD50": "336 mg/kg and 290 mg/kg"}
{"smiles": "NNS(=O)(=O)c1ccc(Oc2ccc(S(=O)(=O)NN)cc2)cc1", "LD50": "2300 mg/kg"}
{"smiles": "CCN(CC)CCNC(=O)c1cc(Br)c(N)cc1OC", "LD50": "545 mg/kg"}
{"smiles": "CC(C)(C)C(=O)CCC1C(=O)N(c2ccccc2)N(c2ccccc2)C1=O", "LD50": "455 mg/kg"}
{"smiles": "NC(=O)C1(N2CCCCC2)CCN(CCCN2c3ccccc3CCc3ccccc32)CC1", "LD50": "1020 mg/kg"}
{"smiles": "CN=c1oc2ccccc2n1C", "LD50": "1000 mg/kg"}
{"smiles": "CC(C=O)=Cc1ccccc1", "LD50": "2050 mg/kg"}
{"smiles": "CN(N=O)C1CCS(=O)(=O)C1", "note": "(stereo not drawn)", "LD50": "750 mg/kg"}
{"smiles": "COP(=S)(OC)Oc1cc(C)c(SC)c(C)c1", "LD50": "1000 mg/kg"}
{"smiles": "CCOP(=O)(OC=C(Cl)Cl)OCC", "LD50": "2.5 mg/kg"}
{"smiles": "CCOc1occ2cnc(C)c(O)c12", "LD50": "2150 mg/kg"}
{"smiles": "C/[N+]([O-])=N/CO[C@@H]1O[C@H](CO)[C@@H](O)[C@H](O)[C@H]1O", "LD50": "270 mg/kg"}
